Structures can show the parent of a compound that is named as a salt.

One assay concerns human and animal plasma. Put plainly: Determination of anticoagulatory activity: activated partial thromboplastin time (aPTT) in plasma. The conditions noted are these: concentration of test substance which brings about a 1.5-fold extension of the aPTT; plasma species not given. Summed up:
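Citrated plasma (1:9, 0.11 M citrate; 4000 g, 15 min) from human or animal blood incubated with test compound and cephalin/kaolin PTT reagent for 3 min at 37° C.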

The next assay has as its target T1, human factor XIa (Homo sapiens, UniProt P03951).
T1 construct: purchased Kordia
In words: Measurement of FXIa inhibition (fluorogenic peptide substrate Boc-Glu(OBzl)-Ala-Arg-AMC). The assay is classed as biochemical. The note with it: factor XIa from Kordia, 15 min preincubation, 30 min at 22° C., fluorescence. Summed up:
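Released AMC fluorescence (360/460 nm) read after 30 min at 22 °C. The reaction was started with Boc-Glu(OBzl)-Ala-Arg-AMC (10 μM stock) after a 15 min preincubation of the enzyme (0.45 nM stock) with compound (final 50 μM to 0.00013 μM).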

T1 sequence (P03951 388-625 limits assumed): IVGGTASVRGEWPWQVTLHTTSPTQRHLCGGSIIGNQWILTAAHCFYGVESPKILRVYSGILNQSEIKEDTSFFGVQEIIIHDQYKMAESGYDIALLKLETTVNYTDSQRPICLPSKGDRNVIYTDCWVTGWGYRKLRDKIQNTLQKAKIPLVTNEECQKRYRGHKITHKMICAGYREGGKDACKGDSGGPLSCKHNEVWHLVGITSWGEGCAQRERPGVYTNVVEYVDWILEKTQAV
T1 sequence (P03951 19-387 partner limits assumed): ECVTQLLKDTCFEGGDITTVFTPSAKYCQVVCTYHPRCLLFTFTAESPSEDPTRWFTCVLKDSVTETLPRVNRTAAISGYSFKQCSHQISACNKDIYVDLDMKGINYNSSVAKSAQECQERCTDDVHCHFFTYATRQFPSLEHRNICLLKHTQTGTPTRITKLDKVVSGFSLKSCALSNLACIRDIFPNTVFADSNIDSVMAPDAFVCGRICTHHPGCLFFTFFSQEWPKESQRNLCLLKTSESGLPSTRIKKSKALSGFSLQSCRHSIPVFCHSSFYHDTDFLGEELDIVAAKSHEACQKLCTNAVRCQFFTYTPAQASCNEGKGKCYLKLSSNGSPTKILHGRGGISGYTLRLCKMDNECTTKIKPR

The term IC50 denotes the concentration that gives 50% inhibition. The low end stands for higher potency, the high end for lower potency. Regarding `Cc1cc(C(=O)N(C)C2CCN(C)CC2)ccc1-c1ccc(C[C@H](NC(=O)[C@H]2CC[C@H](CN)CC2)C(=O)Nc2ccc(-c3nnc(C(F)(F)C(F)(F)C(=O)O)[nH]3)cc2)cc1` [Example 113, 3-[5-(4-{[(2S)-2-({[trans-4-(Aminomethyl)cyclohexyl]carbonyl}amino)-3-{2′-methyl-4′-[methyl(1-methylpiperidin-4-yl)carbamoyl]biphenyl-4-yl}propanoyl]amino}phenyl)-4H-1,2,4-triazol-3-yl]-2,2,3,3-tetrafluoropropanoic acid hydrochloride], the “aPTT” value with human and animal plasma came to 0.07 µmol/L. This compound came in with an IC50 at human factor XIa of 4.9 nM.

Turning to `Cc1cc(C(=O)NCC(=O)N2CCC(N(C)C)CC2)ccc1-c1ccc(C[C@H](NC(=O)[C@H]2CC[C@H](CN)CC2)C(=O)Nc2ccc(-c3nnc(C(F)(F)C(F)(F)C(=O)O)[nH]3)cc2)cc1` [Example 114, 3-{5-[4-({(2S)-2-({[trans-4-(Aminomethyl)cyclohexyl]carbonyl}amino)-3-[4′-{(2-[4-(dimethylamino)piperidin-1-yl]-2-oxoethyl}carbamoyl)-2′-methylbiphenyl-4-yl]propanoyl}-amino)phenyl]-4H-1,2,4-triazol-3-yl}-2,2,3,3-tetrafluoropropanoic acid hydrochloride], the “aPTT” value in the assay with human and animal plasma is 0.14 µmol/L. In addition, on human factor XIa, half-maximal inhibition (IC50) required 2.6 nM.

Turning to `Cc1cc(C(=O)NC2CCC3NCCC32)ccc1-c1ccc(C[C@H](NC(=O)[C@H]2CC[C@H](CN)CC2)C(=O)Nc2ccc(-c3nnc(C(F)(F)C(F)(F)C(=O)O)[nH]3)cc2)cc1` (stereo partly drawn) [Example 115, 3-{5-[4-({(2S)-2-({[trans-4-(Aminomethyl)cyclohexyl]carbonyl}amino)-3-[2′-methyl-4′-(octahydrocyclopenta[b]pyrrol-4-ylcarbamoyl)biphenyl-4-yl]propanoyl}amino)phenyl]-4H-1,2,4-triazol-3-yl}-2,2,3,3-tetrafluoropropanoic acid hydrochloride], the “aPTT” value with human and animal plasma came to 0.09 µmol/L. The same compound gave an IC50 against human factor XIa of 2.3 nM.

With `COc1cc(C(=O)NC2CCN(C)CC2)cc(OC)c1-c1ccc(C[C@H](NC(=O)[C@H]2CC[C@H](CN)CC2)C(=O)Nc2ccc(-c3nn[nH]n3)cc2)cc1` [Example 117, 4′-[(2S)-2-({[trans-4-(Aminomethyl)cyclohexyl]carbonyl}amino)-3-oxo-3-{[4-(2H-tetrazol-5-yl)phenyl]amino}propyl]-2,6-dimethoxy-N-(1-methylpiperidin-4-yl)biphenyl-4-carboxamide hydrochloride], in the assay on human and animal plasma, the “aPTT” value was found to be 0.18 µmol/L. In addition, on human factor XIa, the midpoint of inhibition, the IC50, lay at 8.9 nM.

Regarding `NC[C@H]1CC[C@H](C(=O)N[C@@H](Cc2ccc(-c3cc(F)c(C(=O)NC4CCNCC4)c(F)c3)cc2)C(=O)Nc2ccc(-c3nn[nH]n3)cc2)CC1` [Example 118, hydrochloride], in the assay with human and animal plasma, the “aPTT” value was 0.11 µmol/L. The IC50 against human factor XIa was found to be 2.9 nM.

On to `CCOc1cc(C(=O)NC2CCNCC2)ccc1-c1ccc(C[C@H](NC(=O)[C@H]2CC[C@H](CN)CC2)C(=O)Nc2ccc(-c3nn[nH]n3)cc2)cc1` [Example 119, 4′-[(2S)-2-({[trans-4-(Aminomethyl)cyclohexyl]carbonyl}amino)-3-oxo-3-{[4-(2H-tetrazol-5-yl)phenyl]amino}propyl]-2-ethoxy-N-(piperidin-4-yl)biphenyl-4-carboxamide hydrochloride], for which the “aPTT” value in the assay on human and animal plasma was determined as 0.08 µmol/L. The compound also displayed a half-maximal inhibitory concentration (IC50) against human factor XIa of 2.1 nM.

As to `NC[C@H]1CC[C@H](C(=O)N[C@@H](Cc2ccc(-c3ccc(C(=O)NC4CCNCC4)c(C(F)(F)F)c3)cc2)C(=O)Nc2ccc(-c3nn[nH]n3)cc2)CC1` [Example 120, 4′-[(2S)-2-({[trans-4-(Aminomethyl)cyclohexyl]carbonyl}amino)-3-oxo-3-{[4-(2H-tetrazol-5-yl)phenyl]amino}propyl]-N-(piperidin-4-yl)-3-(trifluoromethyl)biphenyl-4-carboxamide hydrochloride], the “aPTT” value with human and animal plasma was determined as 0.14 µmol/L. Besides, on human factor XIa, the IC50 is 6.7 nM.

On to `COc1c(-c2ccc(C[C@H](NC(=O)[C@H]3CC[C@H](CN)CC3)C(=O)Nc3ccc(-c4nn[nH]n4)cc3)cc2)ccc(C(=O)NC2CCNCC2)c1F` [Example 121, 4′-[(2S)-2-({[trans-4-(Aminomethyl)cyclohexyl]carbonyl}amino)-3-oxo-3-{[4-(2H-tetrazol-5-yl)phenyl]amino}propyl]-3-fluoro-2-methoxy-N-(piperidin-4-yl)biphenyl-4-carboxamide hydrochloride], for which the “aPTT” value with human and animal plasma came to 0.007 µmol/L. This compound gave an IC50 on human factor XIa of 1 nM.

As for `NC[C@H]1CC[C@H](C(=O)N[C@@H](Cc2ccc(-c3ccc(C(=O)NC4CCNCC4)c(Cl)c3)cc2)C(=O)Nc2ccc(-c3nn[nH]n3)cc2)CC1` [Example 122, 4′-[(2S)-2-({[trans-4-(Aminomethyl)cyclohexyl]carbonyl}amino)-3-oxo-3-{[4-(2H-tetrazol-5-yl)phenyl]amino}propyl]-3-chloro-N-(piperidin-4-yl)biphenyl-4-carboxamide hydrochloride], the “aPTT” value in the assay on human and animal plasma is 0.16 µmol/L. Besides, on human factor XIa, the IC50 was 5.2 nM.

Regarding `Cc1c(C(=O)NC2CCNCC2)ccc(-c2ccc(C[C@H](NC(=O)[C@H]3CC[C@H](CN)CC3)C(=O)Nc3ccc(-c4nn[nH]n4)cc3)cc2)c1C` [Example 123, 4′-[(2S)-2-({[trans-4-(Aminomethyl)cyclohexyl]carbonyl}amino)-3-oxo-3-{[4-(2H-tetrazol-5-yl)phenyl]amino}propyl]-2,3-dimethyl-N-(piperidin-4-yl)biphenyl-4-carboxamide hydrochloride], the “aPTT” value in the assay on human and animal plasma was 0.02 µmol/L. In addition, the IC50 against human factor XIa worked out at 2.5 nM.

In the case of `Cc1c(C(=O)NC2CCNCC2)ccc(-c2ccc(C[C@H](NC(=O)[C@H]3CC[C@H](CN)CC3)C(=O)Nc3ccc(-c4nn[nH]n4)cc3)cc2)c1Cl` [Example 124, 4′-[(2S)-2-({[trans-4-(Aminomethyl)cyclohexyl]carbonyl}amino)-3-oxo-3-{[4-(2H-tetrazol-5-yl)phenyl]amino}propyl]-2-chloro-3-methyl-N-(piperidin-4-yl)biphenyl-4-carboxamide hydrochloride], the “aPTT” value in the assay with human and animal plasma came out at 0.1 µmol/L. For the same compound, the IC50 against human factor XIa was 1.8 nM.

For `Cc1c(C(=O)NC2CCN(C)CC2)ccc(-c2ccc(C[C@H](NC(=O)[C@H]3CC[C@H](CN)CC3)C(=O)Nc3ccc(-c4nn[nH]n4)cc3)cc2)c1Cl` [Example 125, 4′-[(2S)-2-({[trans-4-(Aminomethyl)cyclohexyl]carbonyl}amino)-3-oxo-3-{[4-(2H-tetrazol-5-yl)phenyl]amino}propyl]-2-chloro-3-methyl-N-(1-methylpiperidin-4-yl)biphenyl-4-carboxamide hydrochloride], the “aPTT” value in the assay with human and animal plasma came to 0.09 µmol/L. In addition, the half-maximal inhibitory concentration (IC50) against human factor XIa was determined as 3 nM.

With `Cc1cc(C(=O)NC2CCNCC2)ccc1-c1ccc(C[C@H](NC(=O)[C@H]2CC[C@H](CN)CC2)C(=O)Nc2ccc(-c3nc(C(F)(F)C(F)(F)C(=O)N(C)C)n[nH]3)cc2)cc1` [Example 126, 4′-{(2S)-2-({[trans-4-(Aminomethyl)cyclohexyl]carbonyl}amino)-3-[(4-{3-[3-(dimethylamino)-1,1,2,2-tetrafluoro-3-oxopropyl]-1H-1,2,4-triazol-5-yl}phenyl)amino]-3-oxopropyl}-2-methyl-N-(piperidin-4-yl)biphenyl-4-carboxamide hydrochloride], the “aPTT” value in the assay with human and animal plasma came out at 0.14 µmol/L. Also, it took 1.6 nM to reach half-maximal inhibition against human factor XIa (IC50).

The values are drawn from patent US20160272617A1, “SUBSTITUTED PHENYLALANINE DERIVATIVES” (BAYER PHARMA AKTIENGESELLSCHAFT, priority 2013, published 2016).
